# Measured values taken from article PMC10184129 (Journal of Medicinal Chemistry, 2023).
# Experiments:
# [1] = system: murine microglial N9 cells; conditions: LPS 100 ng/mL, 24 h; for TREM2 and TGFβ2 expression: 1-5 μM
# rCB1R = rCB1R (Rattus norvegicus, UniProt P20272)
# hBChE [2] = target: T1, hBChE (Homo sapiens, UniProt P06276)
# [3] = system: Aβ25–35-induced learning impairments in mice; conditions: 3 mg/kg IP
# hBChE [4] = target: T1, hBChE; remark: listed apart in the source
# hCB2R = hCB2R (Homo sapiens, UniProt P34972)
# Sequence of hCB2R (P34972 whole entry): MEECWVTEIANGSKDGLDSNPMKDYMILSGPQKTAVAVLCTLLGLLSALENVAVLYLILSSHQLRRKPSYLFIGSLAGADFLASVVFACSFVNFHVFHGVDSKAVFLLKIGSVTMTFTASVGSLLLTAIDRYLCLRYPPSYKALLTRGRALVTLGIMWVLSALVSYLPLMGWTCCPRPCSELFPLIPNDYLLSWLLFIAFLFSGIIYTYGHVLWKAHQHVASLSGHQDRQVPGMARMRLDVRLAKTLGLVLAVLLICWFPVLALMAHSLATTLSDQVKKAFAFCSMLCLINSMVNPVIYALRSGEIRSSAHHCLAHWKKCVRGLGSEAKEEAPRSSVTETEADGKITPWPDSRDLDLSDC
# T1 sequence (P06276 29-602): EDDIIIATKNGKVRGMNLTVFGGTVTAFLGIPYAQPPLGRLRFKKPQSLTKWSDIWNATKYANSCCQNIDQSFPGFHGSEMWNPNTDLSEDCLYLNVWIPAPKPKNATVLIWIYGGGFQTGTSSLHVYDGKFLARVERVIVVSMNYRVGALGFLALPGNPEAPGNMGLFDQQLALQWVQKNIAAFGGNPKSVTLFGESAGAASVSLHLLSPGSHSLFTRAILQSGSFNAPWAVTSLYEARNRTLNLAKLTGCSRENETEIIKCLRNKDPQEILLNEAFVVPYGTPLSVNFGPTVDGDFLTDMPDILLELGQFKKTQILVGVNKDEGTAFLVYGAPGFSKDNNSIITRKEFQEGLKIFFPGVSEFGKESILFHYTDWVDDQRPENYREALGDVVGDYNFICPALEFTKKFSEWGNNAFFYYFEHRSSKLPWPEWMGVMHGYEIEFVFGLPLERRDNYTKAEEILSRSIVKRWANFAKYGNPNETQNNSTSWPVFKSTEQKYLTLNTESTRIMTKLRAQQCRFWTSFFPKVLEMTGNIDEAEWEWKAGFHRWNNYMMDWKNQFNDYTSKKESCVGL
# Sequence of rCB1R (P20272 whole entry): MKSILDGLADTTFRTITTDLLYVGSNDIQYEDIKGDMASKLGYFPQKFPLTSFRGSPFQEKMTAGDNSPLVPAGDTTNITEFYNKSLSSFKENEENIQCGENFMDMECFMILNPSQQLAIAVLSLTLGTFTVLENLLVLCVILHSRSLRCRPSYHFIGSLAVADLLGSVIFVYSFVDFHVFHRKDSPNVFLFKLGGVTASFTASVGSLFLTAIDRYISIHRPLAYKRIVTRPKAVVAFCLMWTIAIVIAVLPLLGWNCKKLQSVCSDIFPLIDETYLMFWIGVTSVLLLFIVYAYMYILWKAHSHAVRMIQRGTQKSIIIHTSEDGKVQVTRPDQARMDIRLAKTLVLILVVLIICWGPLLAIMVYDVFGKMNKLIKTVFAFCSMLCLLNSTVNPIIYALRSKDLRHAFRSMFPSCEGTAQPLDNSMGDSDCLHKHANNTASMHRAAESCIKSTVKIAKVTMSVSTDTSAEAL
structure (smiles),measurement,setting,value
"CCOc1ccc(Cc2nc3cc(OC(=O)N4CCC4)ccc3n2CCC(C)C)cc1 [21d, 2-(4-Ethoxybenzyl)-1-isopentyl-1H-benzo[d]imidazole-5-yl Azetidine-1-carboxylate]",TREM2 and TGFβ2 expression,[1],No parallel change
same,concentration significantly decreasing expression of (i)NOS,[1]; Western blot,2.5 µM
same,concentration significantly reducing IL1β release,[1]; Western blot,1.0 µM
"CCOc1ccc(Cc2nc3cc(OC(=O)N(C)CC)ccc3n2CCC(C)C)cc1 [21b, 2-(4-Ethoxybenzyl)-1-isopentyl-1H-benzo[d]imidazole-5-yl ethyl(methyl)carbamate]",affinity toward CB1R (in words),rCB1R,only exception
"CCOc1ccc(Cc2nc3cc(OC(=O)N(C)C)ccc3n2CCC(C)C)cc1 [21a, 2-(4-Ethoxybenzyl)-1-isopentyl-1H-benzo[d]imidazole-5-yl dimethylcarbamate]",fold less active on hBChE than counterpart 15d,hBChE [2],more than 100 fold
"CCN(CC)C(=O)c1ccc2c(c1)nc(Cc1ccc(OC(=O)N(C)C)cc1)n2CCC(C)C [15d, 4-((5-(Diethylcarbamoyl)-1-isopentyl-1H-benzo[d]imidazole-2-yl)methyl)phenyl dimethylcarbamate]","effect of highest dose on Aβ25–35-induced learning deficits, passive avoidance",[3],complete blockade
same,"νmax, times higher than compound 21d",hBChE [4],15
same,TREM2 and TGFβ2 expression,[1],No parallel change
same,concentration significantly decreasing expression of (i)NOS,[1]; Western blot,1.0 µM
CCOc1ccc(Cc2nc3cc(C(=O)N(CC)CC)ccc3n2CCC(C)C)cc1 [compound 4],agonist character in calcium mobilization,hCB2R,full agonist
